Test [1] has as its system post-operative abdominal adhesions. As to the kind of experiment: Murine abdominal adhesion surgery model (cecum and abdominal wall abrasion, silk sutures, starch). It is filed as in vivo, C57Bl/6J mice. An excerpt: Murine Abdominal Adhesion Surgery: Mature adult (16-20-week-old) C57Bl/6J male and female mice underwent abdominal surgery to induce adhesions consistent with those observed postoperatively in clinical settings. Briefly, following sedation, a vertical midline laparotomy incision, extending from the xyphoid process to just above the bladder (˜4 cm), is made through the abdominal skin and musculature. The cecum is identified and eviscerated, followed by gentle abrasion with sterile 100-grit sandpaper for 30-60 seconds. Hemostasis is ensured and the cecum is then returned to the abdominal cavity. The abdominal wall is then abraded with sterile 100-grit sandpaper, followed by placement of two-four 4-0 silk sutures, which are placed into the abdominal wall. The intestines are then irrigated with warmed sterile saline, and hemostasis is confirmed. A small pinch of sterile autoclaved rice starch is then sprinkled on the cecum and abdominal sidewall. The laparotomy is closed with absorbable, interrupted sutures used to reapproximate the fascia and followed by sutures to close the skin. The skin is closed with skin adhesive.
Scoring of gross adhesion formation: At time of harvest, digital photographic images will be taken of the abdominal cavity of each mouse, with images standardized to a lateral reflection of abdominal wall prior to manipulation of intra-abdominal contents. These images are then curated in a Research Electronic Data Capture (RedCap)-based survey for blinded scoring. Adhesions are scored from 0-5: with ‘0’ indicating no adhesions; 1: a single thin, filmy adhesion; 2: more than one filmy adhesion; 3: one thick adhesion with focal attachment (+thin filmy adhesions); 4: one thick adhesion with broad planar attachment (+thin filmy adhesions); and 5: >1 thick adhesion with broad planar attachment, or >1 thick vascular adhesion with planar attachment (+thin filmy adhesions). Images are scored by at least 5 surgeons trained on the scoring process, with the mean of these scores reported for each mouse.
Histological assessment of adhesions and ileal smooth muscle hypertrophy: Following digital image capture, the area of adhesion between the abdominal wall and bowel (or other organs), including any bowel: bowel adhesions is isolated, fixed in 10% neutral buffered formalin, and processed for paraffin histology. In cases of adhesion absence, the abdominal wall and cecum are harvested and sectioned separately. Five-micron transverse sections are cut through the tissue. To ensure accurate quantification of adhesions, tissue sections are collected through multiple depths through the tissue. […] Adhesion extent (length and cross-sectional area) along both the abdominal wall/cecal surface and between organs are quantified from H&E images by ≥2 blinded observers. […]
At harvest, the study took pictures of the peritoneal cavity, which were scored by 4 blinded, board certified surgeons adhesion scores ranged from 0 (none) to 5 (dense, vascular, adhesions).
The study chose the area of highest visible fibrosis and adhesion density. […] Adhesions were then measured in micrometers. Length of adhesions between the bowel to abdominal wall and bowel to bowel were measured. The total adhesion density (excluding abdominal wall fibrosis) was then measured by cross section. […]

The test system of test [2] is lung fibroblasts. The following applies: cited from earlier work.

Entries after “also recorded” stand apart in the source; their conditions may differ.

Here are results for one compound from patent US20250345340A1, “METHODS FOR THE PREVENTION AND TREATEMENT OF POST-OPERATIVE ABDOMINAL ADHESIONS” (UNIVERSITY OF ROCHESTER, priority 2024, published 2025).

As to `Nc1nc(NCc2ccccc2)nc(-c2ccccc2CO)n1` [ogerin], in test [1] (histology, POD10, vs control), the “length of adhesions between the bowel and abdominal wall and bowel to bowel” value is given as “reduction in length of adhesions”; the “overall adhesion cross section (total adhesion burden by area)” value is “significantly lower; also recorded: reduces total adhesion burden”. The “clinical adhesion score (0-5, blinded surgeons)” value in test [1] (ogerin injected POD 0-5, harvest POD10, vs vehicle) is given as “reduces clinical adhesion score; also recorded: significantly lower”. In addition, the “adhesion formation (gross)” value in test [1] (ogerin injected POD 0-5, harvest POD10, vs vehicle DMSO:Saline 60:40) is “blunts adhesion formation; also recorded: substantial decrease in adhesion formation”. Besides, the “mice demonstrating a complete lack of adhesion formation” value in test [1] (ogerin injected POD 0-5, harvest POD10, all vehicle mice formed robust adhesions) is reported as 3 out of 4. In test [2], the TGF-b-induced myofibroblast differentiation result is reported as “blunts” and the “reversion to a basal fibroblast phenotype following TGF-β-induced myofibroblast differentiation” value is reported as “can promote reversion”.
